Data: PMC10023787, “Trio-pharmacophore DNA-encoded chemical library for simultaneous selection of fragments and linkers” (Nature Communications, 2023)

Columns and labels:
[1] = molecular target: T1, MMP-9 (Homo sapiens, UniProt P14780); assay: MMP-9 inhibition assay (fluorogenic peptide substrate); type: biochemical; set-up: remaining enzyme activity (% of control): scale not given here; conditions: for remaining enzyme activity (% of control): MMP-9; for IC50: mean ± SE, n.d: not detected, Fig. 5e prints no unit, µM, read-out: IC50
T1 construct: purchased Sino Biological 10327-HNAH
T1 sequence (P14780 107-707 limits assumed): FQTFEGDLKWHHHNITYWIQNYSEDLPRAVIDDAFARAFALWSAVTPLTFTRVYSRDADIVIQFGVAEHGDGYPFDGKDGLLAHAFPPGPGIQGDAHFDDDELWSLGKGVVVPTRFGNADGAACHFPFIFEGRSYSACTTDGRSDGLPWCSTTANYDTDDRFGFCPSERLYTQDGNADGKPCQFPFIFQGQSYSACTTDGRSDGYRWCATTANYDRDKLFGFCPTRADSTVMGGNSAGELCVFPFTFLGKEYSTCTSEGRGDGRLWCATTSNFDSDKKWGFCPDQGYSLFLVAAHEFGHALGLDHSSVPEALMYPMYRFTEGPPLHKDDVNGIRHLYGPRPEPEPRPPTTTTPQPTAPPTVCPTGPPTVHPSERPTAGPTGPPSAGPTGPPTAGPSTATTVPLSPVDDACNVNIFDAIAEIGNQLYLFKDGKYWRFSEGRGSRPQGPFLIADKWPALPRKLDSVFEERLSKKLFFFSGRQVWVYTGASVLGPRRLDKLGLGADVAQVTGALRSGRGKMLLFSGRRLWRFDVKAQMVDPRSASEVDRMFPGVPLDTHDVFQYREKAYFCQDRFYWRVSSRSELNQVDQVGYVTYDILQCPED
Method in brief: (§1)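 Human proMMP-2 and proMMP-9 were activated with 1 mM APMA for 2 h at 37 °C, then used at 6.5 nM (MMP-2) or 10 nM (MMP-9) final in Tris/NaCl/CaCl2/Brij 35 buffer, pH 7.5. After 30 min preincubation with compound at RT, 25 μM FRET peptide substrate was added and fluorescence (ex 280/em 360 nm) followed for 30 min. IC50 came from logistic fits of Vmax.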

[2] = molecular target: T2, MMP-2 (Homo sapiens, UniProt P08253); assay: MMP-2 inhibition assay (fluorogenic peptide substrate); type: biochemical; conditions: for remaining activity (%): MMP-2; for IC50: mean ± SE, n.d: not detected, Fig. 5d unit inferred, µM, read-out: IC50
T2 construct: purchased Sino Biological 10082-HNAH
T2 sequence (P08253 110-660): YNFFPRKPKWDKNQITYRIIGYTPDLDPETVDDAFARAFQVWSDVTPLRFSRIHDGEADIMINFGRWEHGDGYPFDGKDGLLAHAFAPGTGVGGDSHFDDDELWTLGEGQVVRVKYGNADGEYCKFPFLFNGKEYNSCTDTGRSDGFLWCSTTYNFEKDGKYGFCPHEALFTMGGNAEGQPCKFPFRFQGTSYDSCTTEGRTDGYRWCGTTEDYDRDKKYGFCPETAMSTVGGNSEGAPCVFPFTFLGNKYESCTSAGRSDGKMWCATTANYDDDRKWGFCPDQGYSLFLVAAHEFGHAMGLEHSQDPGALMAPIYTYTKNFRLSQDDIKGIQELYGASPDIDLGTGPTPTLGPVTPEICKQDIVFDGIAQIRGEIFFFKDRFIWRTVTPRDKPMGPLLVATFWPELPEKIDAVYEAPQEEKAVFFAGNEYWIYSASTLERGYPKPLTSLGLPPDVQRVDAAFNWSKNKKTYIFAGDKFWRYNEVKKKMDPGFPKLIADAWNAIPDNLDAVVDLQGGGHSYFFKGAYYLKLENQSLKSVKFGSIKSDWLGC
Method in brief: as §1

SMILES | remaining enzyme activity (% of control) ([1]; concentration 0.08 µM) | remaining enzyme activity (% of control) ([1]; concentration 0.39 µM) | remaining enzyme activity (% of control) ([1]; concentration 1.95 µM) | remaining enzyme activity (% of control) ([1]; concentration 9.75 µM) | IC50 [1] | remaining activity (%) ([2]; concentration 0.08 µM) | remaining activity (%) ([2]; concentration 1.95 µM) | IC50 [2] | remaining enzyme activity (% of control) ([1]; concentration 0.12 µM) | remaining enzyme activity (% of control) ([1]; concentration 0.49 µM) | remaining enzyme activity (% of control) ([1]; concentration 7.81 µM) | remaining enzyme activity (% of control) ([1]; concentration 31.25 µM) | remaining enzyme activity (% of control) ([1]; concentration 125.00 µM) | remaining enzyme activity (% of control) ([1]; concentration 500.00 µM) | remaining activity (%) ([2]; concentration 0.12 µM) | remaining activity (%) ([2]; concentration 0.49 µM) | remaining activity (%) ([2]; concentration 7.81 µM) | remaining activity (%) ([2]; concentration 31.25 µM) | remaining activity (%) ([2]; concentration 125.00 µM) | remaining activity (%) ([2]; concentration 500.00 µM) | also measured
Cc1cc(=O)[nH]c(-n2nc(C)c(CCC(=O)NCc3c[nH]nn3)c2C)n1 [693+787 Linker 1] | 91.27 | 99.91 | 99.61 | 100.27 | 312 ± 67.1 µM | 98.78 | 92.82 | 204 ± 37.3 µM | – | – | – | – | – | – | – | – | – | – | – | – | remaining enzyme activity (% of control) ([1]; concentration 48.76 µM): 85.00; remaining enzyme activity (% of control) ([1]; concentration 243.80 µM): 58.59; remaining enzyme activity (% of control) ([1]; concentration 1219.00 µM): 5.52; remaining activity (%) ([2]; concentration 0.0156 µM): 96.66; remaining activity (%) ([2]; concentration 0.39 µM): 101.13; remaining activity (%) ([2]; concentration 9.75 µM): 86.30; remaining activity (%) ([2]; concentration 48.76 µM): 75.55; remaining activity (%) ([2]; concentration 243.80 µM): 47.37; remaining activity (%) ([2]; concentration 1219.00 µM): 8.68
Cc1cc(=O)[nH]c(-n2nc(C)c(CCC(=O)NCCCCCCCCNC(=O)CCC(=O)NCc3c[nH]nn3)c2C)n1 [693+787 Linker 4] | 100.71 | 80.60 | 86.03 | 91.12 | 250 ± 24.6 µM | 98.42 | 90.86 | 169 ± 32.6 µM | – | – | – | – | – | – | – | – | – | – | – | – | remaining enzyme activity (% of control) ([1]; concentration 48.76 µM): 86.75; remaining enzyme activity (% of control) ([1]; concentration 243.80 µM): 51.81; remaining enzyme activity (% of control) ([1]; concentration 1219.00 µM): 0.00; remaining activity (%) ([2]; concentration 0.0156 µM): 90.99; remaining activity (%) ([2]; concentration 0.39 µM): 91.65; remaining activity (%) ([2]; concentration 9.75 µM): 84.93; remaining activity (%) ([2]; concentration 48.76 µM): 72.64; remaining activity (%) ([2]; concentration 243.80 µM): 40.04; remaining activity (%) ([2]; concentration 1219.00 µM): 8.77
Cc1cc(=O)[nH]c(-n2nc(C)c(CCC(=O)NCCOCCOCCNC(=O)CCC(=O)NCc3c[nH]nn3)c2C)n1 [693+787 Linker 10] | 96.44 | 100.55 | 96.19 | 93.95 | 230 ± 51.3 µM | 75.74 | 94.03 | 171 ± 12.6 µM | – | – | – | – | – | – | – | – | – | – | – | – | remaining enzyme activity (% of control) ([1]; concentration 48.76 µM): 88.14; remaining enzyme activity (% of control) ([1]; concentration 243.80 µM): 47.49; remaining enzyme activity (% of control) ([1]; concentration 1219.00 µM): 12.51; remaining activity (%) ([2]; concentration 0.0156 µM): 92.29; remaining activity (%) ([2]; concentration 0.39 µM): 87.35; remaining activity (%) ([2]; concentration 9.75 µM): 78.88; remaining activity (%) ([2]; concentration 48.76 µM): 75.04; remaining activity (%) ([2]; concentration 243.80 µM): 39.80; remaining activity (%) ([2]; concentration 1219.00 µM): 7.43
Cc1cc(=O)[nH]c(-n2nc(C)c(CCC(=O)NCCSCC(=O)NCc3c[nH]nn3)c2C)n1 [693+787 Linker 24] | 94.26 | 97.78 | 91.22 | 96.92 | 270 ± 31.4 µM | 98.28 | 81.72 | 149 ± 25.1 µM | – | – | – | – | – | – | – | – | – | – | – | – | remaining enzyme activity (% of control) ([1]; concentration 48.76 µM): 92.11; remaining enzyme activity (% of control) ([1]; concentration 243.80 µM): 57.21; remaining enzyme activity (% of control) ([1]; concentration 1219.00 µM): 9.75; remaining activity (%) ([2]; concentration 0.0156 µM): 88.74; remaining activity (%) ([2]; concentration 0.39 µM): 98.89; remaining activity (%) ([2]; concentration 9.75 µM): 92.63; remaining activity (%) ([2]; concentration 48.76 µM): 69.73; remaining activity (%) ([2]; concentration 243.80 µM): 36.49; remaining activity (%) ([2]; concentration 1219.00 µM): 2.36
Cc1cc(=O)[nH]c(-n2nc(C)c(CCC(=O)NCCNC(=O)c3cnc4c(c3)nc(O)n4C)c2C)n1 [693+826 Linker 1] | – | – | 98.21 | – | – | – | 97.44 | – | 100.10 | 107.84 | 95.90 | 93.30 | 76.07 | 54.11 | 100.61 | 101.27 | 105.49 | 103.49 | 92.36 | 84.19 | –
Cc1cc(=O)[nH]c(-n2nc(C)c(CCC(=O)NCCCCCCCCNC(=O)c3cnc4c(c3)nc(O)n4C)c2C)n1 [693+826 Linker 4] | – | – | 96.18 | – | – | – | 95.29 | – | 100.31 | 99.68 | 93.00 | 90.00 | 80.00 | 69.08 | 91.52 | 100.66 | 98.79 | 92.06 | 94.34 | 70.32 | –
Cc1cc(=O)[nH]c(-n2nc(C)c(CCC(=O)NCCOCCOCCNC(=O)c3cnc4c(c3)nc(O)n4C)c2C)n1 [693+826 Linker 10] | – | – | 89.00 | – | – | – | 91.10 | – | 93.04 | 87.11 | 87.83 | 75.00 | 69.92 | 55.88 | 88.40 | 91.73 | 90.16 | 89.04 | 84.64 | 68.06 | –
Cc1cc(=O)[nH]c(-n2nc(C)c(CCC(=O)NCCNC(=O)CC(=O)C=CCCCCNC(=O)c3cnc4c(c3)nc(O)n4C)c2C)n1 [693+826 Linker 12] | – | – | 83.12 | – | 58.9 ± 10.5 µM | – | 90.36 | 210 ± 35.3 µM | 100.00 | 80.27 | 88.09 | 65.00 | 27.22 | 12.87 | 103.13 | 90.37 | 93.51 | 77.90 | 65.75 | 29.31 | –
Cc1cc(=O)[nH]c(-n2nc(C)c(CCC(=O)NCCSCC(=O)NCCNC(=O)c3cnc4c(c3)nc(O)n4C)c2C)n1 [693+826 Linker 24] | – | – | 94.32 | – | 358 ± 114 µM | – | 93.80 | 417 ± 50.3 µM | 99.26 | 96.54 | 95.86 | 95.02 | 70.00 | 41.34 | 98.54 | 94.49 | 81.11 | 77.57 | 58.31 | 52.30 | –
Cc1cc(=O)[nH]c(-n2nc(C)c(CCC(=O)NCCNC(=O)c3cncc(O)c3)c2C)n1 [693+828 Linker 1] | 98.15 | – | – | – | 232 ± 35.2 µM | 86.73 | – | 110 ± 13.3 µM | – | – | – | – | – | – | – | – | – | – | – | – | remaining enzyme activity (% of control) ([1]; concentration 0.38 µM): 101.08; remaining enzyme activity (% of control) ([1]; concentration 1.91 µM): 93.24; remaining enzyme activity (% of control) ([1]; concentration 9.54 µM): 99.31; remaining enzyme activity (% of control) ([1]; concentration 47.72 µM): 78.04; remaining enzyme activity (% of control) ([1]; concentration 238.60 µM): 51.23; remaining enzyme activity (% of control) ([1]; concentration 1193.00 µM): 4.04; remaining activity (%) ([2]; concentration 0.0153 µM): 92.49; remaining activity (%) ([2]; concentration 0.38 µM): 90.73; remaining activity (%) ([2]; concentration 1.91 µM): 83.36; remaining activity (%) ([2]; concentration 9.54 µM): 76.57; remaining activity (%) ([2]; concentration 47.72 µM): 66.74; remaining activity (%) ([2]; concentration 238.60 µM): 28.54; remaining activity (%) ([2]; concentration 1193.00 µM): 3.05
